Tested on: intestinal lymph node cells
Test: Production of IgA, IgG and cytokines by intestinal lymph node cells of mice fed lactosucrose (Experiment 3)
Type: in vivo
Details: for IFN-γ produced by intestinal lymph node cells / IL-4 produced by intestinal lymph node cells / IL-6 produced by intestinal lymph node cells / IL-10 produced by intestinal lymph node cells / IgA produced by intestinal lymph node cells / IgG produced by intestinal lymph node cells: four weeks
Protocol: In order to investigate what type of immunopathologically-mediated tissue exerts the enhancing effect on gut immunity, the amounts of IgA, IgG, and various cytokines were measured. Similarly as in Experiment 1, female BALB/c mice (six weeks old) were preliminary reared for one week on “AIN-93G”, the same standard purified diet as used in Experiment 1. Successively, “LS-90P”, a saccharide composition comprising 91.8% (w/w), on a dry solid basis, of lactosucrose commercialized by ENSUIKO Sugar Refining Co., Ltd., Tokyo, Japan, was incorporated into the above purified diet, in which corn starch equal to the amount of the saccharide composition comprising lactosucrose had been removed, to give a lactosucrose content of 2% (w/w) or 5% (w/w), and five mice/group were allowed to ingest the resulting test diet freely. Mice, allowed to ingest “AIN-93G”, as the standard purified diet, were used as control. At four weeks after starting the administration of the test diet, Peyer's patch and intestinal lymph nodes were respectively removed from the mice and cut using a scissor. Then, the resultants were respectively treated in 0.2% (w/v) aqueous collagenase solution at 37° C. for 30 min, and filtrated using a cell strainer to obtain cell suspensions. Each cell suspension was centrifuged to collect cells and the resulting cells were suspended into a 45% (v/v) solution of “PERCOLL”, commercialized by GE Healthcare, to make into a cell suspension. Each resulting suspension was successively placed on a 75% (v/v) “PERCOLL” solution and centrifuged at 1,000×g for 10 min. Cells in a boundary phase between 45% (v/v) and 75% (v/v) “PERCOLL” solution were collected and suspended in RPMI1640 medium comprising 10% FCS and 10 mM HEPES, and the cell concentration was adjusted to 1×10^6 cells/ml. The resulting cell suspension was placed in a 24-well plate to give one ml/well each. Then, 2 μg/ml of Concanavaline A (Con A) as a stimulator to T-cell or 10 μg/ml of lipopolysaccharide (LPS) as a stimulator to B-cell and macrophage cell was admixed with the cell suspension, and then the cells were cultured at 37° C. for 48 hours using 5% (v/v) carbon dioxide gas. A culture supernatant was collected from each well, and the amounts of IgA, IgG, IFN-γ, interleukin-4 (IL-4), IL-6, interleukin-10 (IL-10), and TGF-β were measured by ELISA using an anti-mouse IgA antibody, anti-mouse IgG antibody, anti-mouse IFN-γ antibody (commercialized by Pepro Tech EC. Ltd.), anti-mouse IL-4 antibody (commercialized by R&D Systems), anti-mouse IL-6 antibody (commercialized by R&D Systems), anti-mouse IL-10 antibody (commercialized by R&D Systems), and anti-mouse TGF-β antibody (commercialized by Promega Co., Wisconsin, USA), and the average values of those from five mice were determined. The results for Peyer's patch cells and intestinal lymph node cells are respectively in Tables 3 and 4. The percentages in parentheses in the tables mean a relative value to the amount of IgA, IgG, IFN-γ, IL-4, IL-6, IL-10 or TGF-β produced by Peyer's patch cells or intestinal lymph node cells from the control mice.

[1] = Lactosucrose 2% (w/w) diet, Con A
[2] = Lactosucrose 2% (w/w) diet, LPS
[3] = Lactosucrose 2% (w/w) diet, LPS, DL: Detection limit
[4] = Lactosucrose 5% (w/w) diet, Con A
[5] = Lactosucrose 5% (w/w) diet, LPS
[6] = Lactosucrose 5% (w/w) diet, LPS, DL: Detection limit

OC[C@H]1O[C@@H](O[C@H]2[C@H](O)[C@@H](O)[C@@H](O[C@]3(CO)O[C@H](CO)[C@@H](O)[C@@H]3O)O[C@@H]2CO)[C@H](O)[C@@H](O)[C@H]1O [Lactosucrose, β-D-galactosyl-(1,4)-α-D-glucosyl-(1,2)-β-D-fructoside]
IFN-γ produced by intestinal lymph node cells [1]: 8.5 ± 3.4 ng/mL | IL-4 produced by intestinal lymph node cells [1]: 22 ± 0.89 pg/mL | IL-6 produced by intestinal lymph node cells [1]: 3.0 ± 0.81 pg/mL | IL-10 produced by intestinal lymph node cells [1]: 14 ± 15 pg/mL | IgA produced by intestinal lymph node cells [1]: 41 ± 15 µg/mL | IgG produced by intestinal lymph node cells [1]: 1.9 ± 1.5 ng/mL | IL-6 produced by intestinal lymph node cells [2]: 7.4 ± 2.6 pg/mL | IgA produced by intestinal lymph node cells [2]: 38 ± 17 µg/mL | IgG produced by intestinal lymph node cells [2]: 1.5 ± 1.0 ng/mL | IFN-γ produced by intestinal lymph node cells [3]: Below DL* | IL-4 produced by intestinal lymph node cells [3]: Below DL* | IL-10 produced by intestinal lymph node cells [3]: Below DL* | IFN-γ produced by intestinal lymph node cells, relative value to control (Lactosucrose 2% (w/w), Con A): (127%) | IL-4 produced by intestinal lymph node cells, relative value to control (Lactosucrose 2% (w/w), Con A): (88%) | IL-6 produced by intestinal lymph node cells, relative value to control (Lactosucrose 2% (w/w), Con A): (103%) | IL-10 produced by intestinal lymph node cells, relative value to control (Lactosucrose 2% (w/w), Con A): (127%) | IgA produced by intestinal lymph node cells, relative value to control (Lactosucrose 2% (w/w), Con A): (85%) | IgG produced by intestinal lymph node cells, relative value to control (Lactosucrose 2% (w/w), Con A): (100%) | IL-6 produced by intestinal lymph node cells, relative value to control (Lactosucrose 2% (w/w), LPS): (107%) | IgA produced by intestinal lymph node cells, relative value to control (Lactosucrose 2% (w/w), LPS): (93%) | IgG produced by intestinal lymph node cells, relative value to control (Lactosucrose 2% (w/w), LPS): (115%) | IFN-γ produced by intestinal lymph node cells [4]: 3.8 ± 1.2 ng/mL | IL-4 produced by intestinal lymph node cells [4]: 21 ± 1.1 pg/mL | IL-6 produced by intestinal lymph node cells [4]: 2.7 ± 0.44 pg/mL | IL-10 produced by intestinal lymph node cells [4]: 14 ± 12 pg/mL | IgA produced by intestinal lymph node cells [4]: 37 ± 31 µg/mL | IgG produced by intestinal lymph node cells [4]: 1.00 ± 0.94 ng/mL | IL-6 produced by intestinal lymph node cells [5]: 4.3 ± 1.1 pg/mL | IgA produced by intestinal lymph node cells [5]: 29 ± 22 µg/mL | IgG produced by intestinal lymph node cells [5]: 0.79 ± 0.79 ng/mL | IFN-γ produced by intestinal lymph node cells [6]: Below DL* | IL-4 produced by intestinal lymph node cells [6]: Below DL* | IL-10 produced by intestinal lymph node cells [6]: Below DL* | IFN-γ produced by intestinal lymph node cells, relative value to control (Lactosucrose 5% (w/w), Con A): (57%) | IL-4 produced by intestinal lymph node cells, relative value to control (Lactosucrose 5% (w/w), Con A): (84%) | IL-6 produced by intestinal lymph node cells, relative value to control (Lactosucrose 5% (w/w), Con A): (93%) | IL-10 produced by intestinal lymph node cells, relative value to control (Lactosucrose 5% (w/w), Con A): (127%) | IgA produced by intestinal lymph node cells, relative value to control (Lactosucrose 5% (w/w), Con A): (77%) | IgG produced by intestinal lymph node cells, relative value to control (Lactosucrose 5% (w/w), Con A): (53%) | IL-6 produced by intestinal lymph node cells, relative value to control (Lactosucrose 5% (w/w), LPS): (62%) | IgA produced by intestinal lymph node cells, relative value to control (Lactosucrose 5% (w/w), LPS): (71%) | IgG produced by intestinal lymph node cells, relative value to control (Lactosucrose 5% (w/w), LPS): (61%)

Source: patent publication US20090270342A1, “IMMUNOREGULATORY AGENT” (priority 2006, published 2009)
